Key:
Test in all cases: Test F preemergence test
large crabgrass = type: in vivo, Digitaria sanguinalis; conditions: scale 0 to 100
Outline: (§1)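 Test chemicals were formulated in a non-phytotoxic solvent mixture with surfactant and applied preemergence to planted seeds or postemergence to sugarcane plants. Plants were kept in a greenhouse for 14 to 21 days, then visually evaluated against controls.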

green foxtail = type: in vivo, Setaria viridis; conditions: scale 0 to 100
Outline: as §1

goosegrass = type: in vivo, Eleusine indica; conditions: scale 0 to 100
Outline: as §1

johnsongrass = type: in vivo, Sorghum halepense; conditions: scale 0 to 100
Outline: as §1

pitted morningglory = type: in vivo, Ipomoea lacunosa; conditions: scale 0 to 100
Outline: as §1

purple nutsedge = type: in vivo, Cyperus rotundus; conditions: scale 0 to 100
Outline: as §1

common ragweed = type: in vivo, Ambrosia elation; conditions: scale 0 to 100
Outline: as §1

barnyardgrass = type: in vivo, Echinochloa crus-galli
Outline: as §1

southern sandbur = type: in vivo, Cenchrus echinatus; conditions: scale 0 to 100
Outline: as §1

Italian ryegrass = type: in vivo, Lolium multiflorum; conditions: scale 0 to 100
Outline: as §1

common purslane = type: in vivo, Portulaca oleracea; conditions: scale 0 to 100
Outline: as §1

common groundsel = type: in vivo, Senecio vulgaris; conditions: scale 0 to 100
Outline: as §1

annual bluegrass = type: in vivo, Poa annua; conditions: scale 0 to 100
Outline: as §1

naked crabgrass = type: in vivo, Digitaria nuda; conditions: scale 0 to 100
Outline: as §1

itchgrass = type: in vivo, Rottboellia cochinchinensis; conditions: scale 0 to 100
Outline: as §1

field bindweed = type: in vivo, Convolvulus arvensis; conditions: scale 0 to 100
Outline: as §1

## CCn1nc(C(F)(F)F)c(CS(=O)(=O)c2cccc[n+]2[O-])c1OCC(F)(F)F [Compound 63]
Large crabgrass; 16 g ai/ha, preemergence
  Plant response rating, Crabgrass, Large: 25
Large crabgrass; 62 g ai/ha, Preemergence
  Crabgrass, Large plant response rating: 95
Large crabgrass; 125 g ai/ha, preemergence
  Crabgrass, Large plant response rating: 100
Large crabgrass; Preemergence, 31 g ai/ha
  Plant response rating, Crabgrass, Large: 90
Green foxtail; 16 g ai/ha, preemergence
  Plant response rating, Foxtail, Green: 65
Green foxtail; 62 g ai/ha, Preemergence
  Foxtail, Green plant response rating: 90
Green foxtail; 125 g ai/ha, preemergence
  Foxtail, Green plant response rating: 100
Green foxtail; Preemergence, 31 g ai/ha
  Plant response rating, Foxtail, Green: 80
goosegrass; 16 g ai/ha, preemergence
  Plant response rating, Goosegrass: 80
goosegrass; 62 g ai/ha, Preemergence
  Goosegrass plant response rating: 98
goosegrass; 125 g ai/ha, preemergence
  Goosegrass plant response rating: 100
goosegrass; Preemergence, 31 g ai/ha
  Plant response rating, Goosegrass: 90
johnsongrass; 16 g ai/ha, preemergence
  Plant response rating, Johnsongrass: 35
johnsongrass; 62 g ai/ha, Preemergence
  Johnsongrass plant response rating: 100
johnsongrass; 125 g ai/ha, preemergence
  Johnsongrass plant response rating: 100
johnsongrass; Preemergence, 31 g ai/ha
  Plant response rating, Johnsongrass: 80
Pitted morningglory; 16 g ai/ha, preemergence
  Plant response rating, Morningglory: 0
Pitted morningglory; 62 g ai/ha, Preemergence
  Morningglory plant response rating: 0
Pitted morningglory; 125 g ai/ha, preemergence
  Morningglory plant response rating: 35
Pitted morningglory; Preemergence, 31 g ai/ha
  Plant response rating, Morningglory: 0
Purple nutsedge; 16 g ai/ha, preemergence
  Plant response rating, Purple Nutsedge: 0
Purple nutsedge; 62 g ai/ha, Preemergence
  Purple Nutsedge plant response rating: 65
Purple nutsedge; 125 g ai/ha, preemergence
  Purple Nutsedge plant response rating: 75
Purple nutsedge; Preemergence, 31 g ai/ha
  Plant response rating, Purple Nutsedge: 15
Common ragweed; 16 g ai/ha, preemergence
  Plant response rating, Ragweed: 0
Common ragweed; 125 g ai/ha, preemergence
  Ragweed plant response rating: 100
Common ragweed; Preemergence, 62 g ai/ha
  Plant response rating, Ragweed: 90
Common ragweed; Preemergence, 31 g ai/ha
  Plant response rating, Ragweed: 40
barnyardgrass; 16 g ai/ha, preemergence, scale 0 to 100 (0 no effect, 100 complete control)
  Plant response rating, Barnyardgrass: 80
barnyardgrass; 62 g ai/ha, Preemergence, scale 0 to 100
  Barnyardgrass plant response rating: 95
barnyardgrass; 125 g ai/ha, preemergence, scale 0 to 100
  Barnyardgrass plant response rating: 100
barnyardgrass; Preemergence, 31 g ai/ha, scale 0 to 100
  Plant response rating, Barnyardgrass: 80
Southern sandbur; 16 g ai/ha, preemergence
  Plant response rating, Sandbur: 65
Southern sandbur; 125 g ai/ha, preemergence
  Sandbur plant response rating: 100
Southern sandbur; Preemergence, 62 g ai/ha
  Plant response rating, Sandbur: 100
Southern sandbur; Preemergence, 31 g ai/ha
  Plant response rating, Sandbur: 100
Italian ryegrass; 16 g ai/ha, preemergence
  Plant response rating, Ryegrass, Italian: 0
Italian ryegrass; 125 g ai/ha, preemergence
  Ryegrass, Italian plant response rating: 100
Italian ryegrass; Preemergence, 62 g ai/ha
  Plant response rating, Ryegrass, Italian: 80
Italian ryegrass; Preemergence, 31 g ai/ha
  Plant response rating, Ryegrass, Italian: 60
Common purslane; 16 g ai/ha, preemergence
  Plant response rating, Purslane: 0
Common purslane; 62 g ai/ha, Preemergence
  Purslane plant response rating: 0
Common purslane; 125 g ai/ha, preemergence
  Purslane plant response rating: 20
Common purslane; Preemergence, 31 g ai/ha
  Plant response rating, Purslane: 0
Common groundsel; 16 g ai/ha, preemergence
  Plant response rating, Groundsel: 0
Common groundsel; 62 g ai/ha, Preemergence
  Groundsel plant response rating: 0
Common groundsel; 125 g ai/ha, preemergence
  Groundsel plant response rating: 0
Common groundsel; Preemergence, 31 g ai/ha
  Plant response rating, Groundsel: 0
Annual bluegrass; 16 g ai/ha, preemergence
  Plant response rating, Bluegrass: 25
Annual bluegrass; 62 g ai/ha, Preemergence
  Bluegrass plant response rating: 90
Annual bluegrass; 125 g ai/ha, preemergence
  Bluegrass plant response rating: 100
Annual bluegrass; Preemergence, 31 g ai/ha
  Plant response rating, Bluegrass: 65
Naked crabgrass; 16 g ai/ha, preemergence
  Plant response rating, Crabgrass, Naked: 70
Naked crabgrass; 62 g ai/ha, Preemergence
  Crabgrass, Naked plant response rating: 100
Naked crabgrass; 125 g ai/ha, preemergence
  Crabgrass, Naked plant response rating: 100
Naked crabgrass; Preemergence, 31 g ai/ha
  Plant response rating, Crabgrass, Naked: 70
itchgrass; 16 g ai/ha, preemergence
  Plant response rating, Itchgrass: 10
itchgrass; 62 g ai/ha, Preemergence
  Itchgrass plant response rating: 80
itchgrass; 125 g ai/ha, preemergence
  Itchgrass plant response rating: 90
itchgrass; Preemergence, 31 g ai/ha
  Plant response rating, Itchgrass: 50
Field bindweed; 16 g ai/ha, preemergence
  Plant response rating, Field Bindweed: 0
Field bindweed; 62 g ai/ha, Preemergence
  Field Bindweed plant response rating: 0
Field bindweed; 125 g ai/ha, preemergence
  Field Bindweed plant response rating: 0
Field bindweed; Preemergence, 31 g ai/ha
  Plant response rating, Field Bindweed: 0

From patent US20100298141A1, “SUBSTITUTED PYRIDINE N-OXIDE HERBICIDES” (E. I. DU PONT DE NEMOURS AND COMPANY, priority 2007, published 2010)
